# Results taken from ChEMBL document CHEMBL5226301, “Toward Raman Subcellular Imaging of Endothelial Dysfunction” (J Med Chem, 2021).
# Experiment: Dissociation constant, pKa of compound
# Assay type: physicochemical
row,SMILES,pKa
1,Nc1cccc(C#CC#Cc2ccccc2)c1,3.5
2,O=S(=O)(Nc1ccc(C#CC#Cc2ccccc2)cc1)C(F)(F)F,4.1
3,C(C#Cc1c[nH]cn1)#Cc1ccccc1,4
4,Oc1c(F)cc(C#CC#Cc2ccccc2)cc1F,6.2
5,Oc1ccc(C#CC#Cc2ccccc2)c(F)c1,8.5
6,C(C#Cc1ccncc1)#Cc1ccccc1,3.3
7,Nc1cc(C#CC#Cc2ccccc2)ccn1,5

# Next, values leading:
row,pKa,SMILES
1,7.9,Oc1ccc(C#CC#Cc2ccccc2)cc1F
2,2.8,Nc1ccc(C#CC#Cc2ccc(O)cc2)cc1
3,9.5,Oc1ccc(C#CC#Cc2ccccc2)cc1
4,2.7,Nc1ccc(C#CC#Cc2ccccc2)cc1
5,2.7,Nc1ccc(C#CC#Cc2ccccc2)c(O)c1
